Measured values from ChEMBL document CHEMBL5104128, “The discovery of a non-competitive GOT1 inhibitor, hydralazine hydrochloride, via a coupling reaction-based high-throughput screening assay” (Bioorg Med Chem Lett, 2022).
Structures can show the parent of a compound that is named as a salt.

Legend:
[1] = molecular target: T1, Aspartate aminotransferase, cytoplasmic (Homo sapiens, UniProt P17174); test: Inhibition of GOT1 (unknown origin) using aspartic acid and alpha-ketoglutaric acid as substrates assessed as reduction in absorbance of NADH incubated for 20 mins in presence of MDH1 and NADH by HTS assay
T1 sequence (P17174 whole entry): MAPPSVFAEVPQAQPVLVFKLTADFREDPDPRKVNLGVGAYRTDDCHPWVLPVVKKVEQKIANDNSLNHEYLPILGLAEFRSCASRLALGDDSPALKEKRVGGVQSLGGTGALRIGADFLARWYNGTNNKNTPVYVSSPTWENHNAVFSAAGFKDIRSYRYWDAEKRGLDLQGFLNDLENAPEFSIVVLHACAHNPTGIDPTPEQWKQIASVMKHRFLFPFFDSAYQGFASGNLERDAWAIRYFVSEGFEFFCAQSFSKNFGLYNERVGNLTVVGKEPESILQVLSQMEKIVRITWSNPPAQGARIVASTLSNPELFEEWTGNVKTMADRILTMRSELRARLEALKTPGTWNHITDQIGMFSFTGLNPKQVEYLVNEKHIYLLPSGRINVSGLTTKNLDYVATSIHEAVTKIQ

[2] = molecular target: T1, Aspartate aminotransferase, cytoplasmic; test: Inhibition of human recombinant GOT1 using aspartic acid and alpha-ketoglutaric acid as substrates incubated in presence of MDH1 and NADH
[3] = molecular target: T1, Aspartate aminotransferase, cytoplasmic; test: Inhibition of GOT1 (unknown origin)
[4] = molecular target: T1, Aspartate aminotransferase, cytoplasmic; test: Inhibition of C-terminal His6-tagged human recombinant GOT1 expressed in Escherichia coli BL21 (DE3) cells using aspartic acid and alpha-ketoglutaric acid as substrates incubated in presence of MDH1 and NADH
[5] = molecular target: T1, Aspartate aminotransferase, cytoplasmic; test: Noncompetitive inhibition of GOT1 (unknown origin) using aspartic acid as substrate assessed as inhibition constant by Michaelis-Menten equation based kinetic analysis
[6] = molecular target: T1, Aspartate aminotransferase, cytoplasmic; test: Binding affinity to GOT1 (unknown origin) assessed as dissociation constant by microscale thermophoresis assay
[7] = molecular target: T1, Aspartate aminotransferase, cytoplasmic; test: Noncompetitive inhibition of GOT1 (unknown origin) using alpha-Ketoglutaric acid as substrate assessed as inhibition constant by Michaelis-Menten equation based kinetic analysis

With `Nc1cccc2cnncc12` the IC50 [1] was greater than 100 µM.
Work on `Nc1cccnn1` yielded an IC50 [1] greater than 100 µM.
`NNc1cccnn1` showed an IC50 [1] of 29.4 µM.
In the case of `CC(C)=CCc1cc(/C=C2\OC(=O)C(c3cc(CC=C(C)C)c(O)cc3O)=C2O)ccc1O`, the IC50 [2] is reported as 2.92 µM.
In the case of `NNc1nnc(Cl)c2ccccc12`, the IC50 [1] is reported as 65.4 µM.
`NC1Cc2ccccc2N(O)C1=O` (centres undefined) gave an IC50 [3] of 8 µM.
For `COc1ccc(-c2ccc3cc(C(=O)O)ccc3c2)cc1C12CC3CC(CC(C3)C1)C2` [ADAPALENE], the IC50 [4] was 21.8 µM.
`NNc1nnc(NN)c2ccccc12` [DIHYDRALAZINE] gave an IC50 [1] greater than 100 µM.
For `NNc1nncc2ccccc12` [HYDRALAZINE HYDROCHLORIDE], the Ki [5] was 14.7 µM, the Kd [6] was 16.5 µM and the Ki [7] was 20.2 µM. It also gave an IC50 [3] of 26.6 µM.
With `NNc1nncc2ccccc12` [HYDRALAZINE] the IC50 [1] was 26.6 µM.
`O=C1Cc2cc(CCN3CCN(c4nsc5ccccc45)CC3)c(Cl)cc2N1` [ZIPRASIDONE] gave an IC50 [3] of 5.39 µM.
